Drawing on ChEMBL document CHEMBL1122157 (J Med Chem, 1982), this text covers IC50 for six molecules.

The structures appear in SMILES notation.

This assay has as its target T1, Dihydrofolate reductase (Gallus gallus, UniProt P00378).
T1 sequence (P00378 whole entry): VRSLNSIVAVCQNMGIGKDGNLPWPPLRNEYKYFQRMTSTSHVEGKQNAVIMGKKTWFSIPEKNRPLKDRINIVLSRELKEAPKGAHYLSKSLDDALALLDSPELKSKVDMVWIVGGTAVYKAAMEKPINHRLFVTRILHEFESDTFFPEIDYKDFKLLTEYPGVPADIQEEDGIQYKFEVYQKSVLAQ
Briefly: Evaluated for the inhibition of chicken liver Dihydrofolate reductase by using standard enzyme assay. As to conditions: read-out: I50.
Take `CN(Cc1cnc2nc(N)nc(N)c2n1)c1ccc(C(=O)NC(CCCCNC(=O)OCc2ccccc2)C(=O)O)cc1` (stereo unspecified): the IC50 was 380 nM.
To `CN(Cc1cnc2nc(N)nc(N)c2n1)c1ccc(C(=O)NC(CCCNC(=O)OCc2ccccc2)C(=O)OC(C)(C)C)cc1` (stereo unspecified) belongs 3100 nM; to `CN(Cc1cnc2nc(N)nc(N)c2n1)c1ccc(C(=O)NC(CCCCNC(=O)OCc2ccccc2)C(=O)OC(C)(C)C)cc1` (stereo unspecified), 950 nM; to `CN(Cc1cnc2nc(N)nc(N)c2n1)c1ccc(C(=O)NC(CCCNC(=O)OCc2ccccc2)C(=O)O)cc1` (stereo unspecified), 330 nM.
Turning to `CN(Cc1cnc2nc(N)nc(N)c2n1)c1ccc(C(=O)NC(CCCN)C(=O)O)cc1` (stereo unspecified), the IC50 is 250 nM.
The result for `CN(Cc1cnc2nc(N)nc(N)c2n1)c1ccc(C(=O)NC(CCCCN)C(=O)O)cc1` (stereo unspecified) reads 130 nM.
